Data as given in US5474929A, “Selectable/reporter gene for use during genetic engineering of plants and plant cells” (National Research Council of Canada, priority 1993, dated 1995).

Assays:
[1] = tested on: plant cells, such as soybean (SB-1), tobacco and Brassica sp.; assay: Inhibition of plant cell growth by deoxyadenosine and analogs in culture medium; assay type: cell-based
[2] = tested on: tobacco (Nicotiana tabacum cv. Xenthi) leaf explants; assay: Effect on growth of tobacco leaf explants (fresh weight increase); assay type: cell-based; details: average after 3 weeks in culture
Protocol: The fresh weight increase was determined after 3 weeks in culture.

[3] = tested on: soybean cells (Glycine max) line SB-1; assay: Effect on growth of soybean cells in culture (dry weight increase); assay type: cell-based; details: for Increase In Dry Weight: average after 6 days in culture
Protocol: Aliquots of cells were subcultured to medium containing either 0, 0.74 μM, 7.4 μM, 74 μM of 2'-deoxyadenosine and cultured for 6 days. The cells were then harvested on filters, oven dried and weighed.

[4] = tested on: leaf discs from Normal (non-transformed) plants; assay: Culture of leaf discs from non-transformed plants on selective media; assay type: cell-based, Nicotiana tabacum
Protocol: (§1) Leaf discs cut from Nicotiana tabacum cv. Xanthi were soaked in a dilution of an overnight culture of Agrobacterium/pDY18 for several seconds, blotted dry and placed on Murashige and Skoog medium containing Gamborg's (MS/B5 medium containing 30 g/l sucrose, 2 mg/l2,4-dichlorophenoxy acetic acid and […] phytoagar). After 2 days of co-cultivation the leaf discs were placed on medium containing ara-A (100 μM) or cordycepin (50 μM) as selective agents and 500 μg/ml carbenicillin to inhibit Agrobacterium growth. The shoots which were regenerated were transferred to rooting medium containing MS basal medium containing Gamborg's vitamins (MS/B5, Sigma), 30 g/l sucrose, 0.1 mg/l a-naphthalene acetic acid (NAA), 500 μg/ml carbenicillin and 100 μg/ml kanamycin and 6 g/l phytoagar, adjusted to pH 5.6. Regenerated plants were transferred to soil and grown at 25° C. in an 18/6 hrs day/night cycle. Two plants designated 18-2 and 18-3 were chosen for further study.
(§2) Leaf discs cut from plant 18-2, 18-3, and Normal (non-transformed) plants were cultured on agar MS agar media containing either no selective agent or ara-A (100 μM) or cordycepin (50 μM).

[5] = tested on: leaf discs from ADA transformed plants 18-2, 18-3; assay: Culture of leaf discs from ADA transformed plants on selective media; assay type: cell-based, Nicotiana tabacum
Protocol: as §1, §2

SMILES	growth of plant cells in presence of compound in culture medium [1]	Increase in Fresh Weight ([2]; 40 μM)	Increase in Fresh Weight ([2]; 80 μM)	Increase in Fresh Weight ([2]; 160 μM)	other results
Nc1ncnc2c1ncn2[C@H]1CC[C@@H](CO)O1 [2'-3'-dideoxyadenosine]	inhibited				
Nc1ncnc2c1ncn2[C@H]1C[C@H](O)[C@@H](CO)O1 [2'-deoxyadenosine]	inhibited	0.74 ± 0.058 g	0.96 ± 0.050 g	0.32 ± 0.038 g	Increase in Fresh Weight ([2]; 320 μM): 0.07 ± 0.005 g; Increase in Fresh Weight ([2]; 640 μM): 0.04 ± 0.003 g; Increase In Dry Weight ([3]; 0.74 μM): 6.05 mg; Increase In Dry Weight ([3]; 7.40 μM): 3.51 mg; Increase In Dry Weight ([3]; 74.00 μM): 1.93 mg; effect on growth of soybean cells ([3]; all three concentrations (0.74, 7.4, 74 μM), 6 days): inhibitory
Nc1nc(N)c2ncn([C@@H]3O[C@H](CO)[C@@H](O)[C@H]3O)c2n1 [2,6-diaminopurine riboside]	inhibited				
Nc1nc(Cl)nc2c1ncn2[C@@H]1O[C@H](CO)[C@@H](O)[C@H]1O [2-chloroadenosine]	inhibited				
OC[C@H]1O[C@@H](n2cnc3c(Cl)ncnc32)[C@H](O)[C@@H]1O [6-chloropurine riboside]	inhibited				
COc1ncnc2c1ncn2[C@@H]1O[C@H](CO)[C@@H](O)[C@H]1O [6-methoxypurine riboside]	inhibited				
Nc1ncnc2c1ncn2[C@@H]1O[C@H](CO)[C@@H](O)[C@H]1O [Adenosine]		0.95 ± 0.069 g	0.81 ± 0.060 g	0.94 ± 0.056 g	Increase in Fresh Weight ([2]; 320 μM): 0.57 ± 0.052 g
Nc1ncnc2c1ncn2[C@@H]1O[C@H](CO)[C@@H](O)[C@@H]1O [Arabinofuranosyl, 9-B-D-arabinofuranosyl adenine]	inhibited	0.10 ± 0.048 g	0.05 ± 0.008 g	0.02 ± 0.001 g	growth of tissues on selective medium ([4]; ara-A 100 μM): No growth was observed; growth of tissues on selective medium ([5]; transformed plant 18-2, ara-A 100 μM): proliferated; growth of tissues on selective medium ([5]; transformed plant 18-3, ara-A (100 μM)): proliferated; Increase in Fresh Weight ([2]; 5 μM): 0.56 ± 0.047 g; Increase in Fresh Weight ([2]; 10 μM): 0.32 ± 0.037 g; Increase in Fresh Weight ([2]; 20 μM): 0.23 ± 0.025 g
Nc1ncnc2c1ncn2[C@@H]1O[C@H](CO)C[C@H]1O [Cordycepin, 3'-deoxyadenosine]	inhibited	0.04 + 0.049 g	0.02 ± 0.001 g	0.02 ± 0.001 g	growth of tissues on selective medium ([4]; cordycepin 50 μM): No growth was observed; growth of tissues on selective medium ([5]; transformed plant 18-2, cordycepin 50 μM): proliferated; growth of tissues on selective medium ([5]; transformed plant 18-3, cordycepin (50 μM)): proliferated; Increase in Fresh Weight ([2]; 5 μM): 0.61 ± 0.059 g; Increase in Fresh Weight ([2]; 10 μM): 0.10 ± 0.016 g; Increase in Fresh Weight ([2]; 20 μM): 0.06 ± 0.008 g
Nc1ncnc2c1ncn2[C@@H]1O[C@H](CO)[C@H](O)[C@H]1O [xyl-A, 9-B-D-xylofuranosyl adenine]	inhibited				
